Consider 9 compounds from PubChem BioAssay (NCI).

Among the test systems are UACC-62 melanoma; SF-268 CNS; ACHN renal; NCI-H226 lung; HOP-92 NSCLC; A549 NSCLC; CAKI-1 renal; CCRF-CEM leukemia; SW-620 colon; SF-295 CNS.
Common to all, as to experiment: NCI anticancer screen, dose series, 48 h

Molecules are shown by their SMILES.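 Each compound was tested at five concentrations against cells in 96-well plates for 48 hours. GI50 is the concentration that inhibits growth by half. TGI denotes the concentration required for complete inhibition of growth.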

Consider `Cc1ccc(NC(=O)c2cc(S(=O)(=O)N3C(=O)NC(=O)NS3(=O)=O)c(S)cc2Cl)cc1`, for which the GI50 with UACC-62 melanoma was 15.7 µM; in the assay with SF-268 CNS, 38.1 µM; in the assay on ACHN renal, 26.3 µM; in the assay with NCI-H226 lung, 30.6 µM; in the assay on HOP-92 NSCLC, 15.6 µM; in the assay on A549 NSCLC, 35.1 µM. Further, the GI50 is 30.6 µM in the assay on CAKI-1 renal, 15.9 µM with CCRF-CEM leukemia, 31.6 µM with SW-620 colon and 26.2 µM with SF-295 CNS. Besides, the TGI in the assay on UACC-62 melanoma was 36 µM; in the assay with SF-268 CNS it was > 100 µM; in the assay with ACHN renal, 83.8 µM; in the assay with NCI-H226 lung, 76.6 µM; in the assay with HOP-92 NSCLC it was 54.7 µM; in the assay with A549 NSCLC it was > 100 µM. Moreover, the TGI with CAKI-1 renal is 60.9 µM; with CCRF-CEM leukemia, 40.3 µM; in the assay with SW-620 colon, > 100 µM; in the assay on SF-295 CNS, 55 µM.

`NC(=S)NN/C=C(\C=Nc1ccccc1)[N+](=O)[O-]`: the TGI with UACC-62 melanoma, with SF-268 CNS, in the assay with ACHN renal, with NCI-H226 lung, in the assay with HOP-92 NSCLC and with A549 NSCLC was > 100 µM in each case. Also, the TGI in the assay with CAKI-1 renal, with CCRF-CEM leukemia, with SW-620 colon and in the assay on SF-295 CNS was > 100 µM each time.

`C/C(=N\NC(=O)CC#N)c1c(O)cc(C)oc1=O`: the TGI with UACC-62 melanoma, in the assay on SF-268 CNS, with ACHN renal, in the assay on NCI-H226 lung, in the assay with HOP-92 NSCLC and with A549 NSCLC was > 100 µM in each case. For the same compound, the TGI with CAKI-1 renal, in the assay with CCRF-CEM leukemia, in the assay on SW-620 colon and in the assay on SF-295 CNS was > 100 µM each time.

Regarding `O=c1c(F)cn(Cc2ccccc2CCl)c(=O)n1Cc1ccccc1CCl`, the GI50 is 1.33 µM with UACC-62 melanoma; 2.04 µM with SF-268 CNS; 1.58 µM in the assay with ACHN renal; 0.539 µM in the assay on NCI-H226 lung; 2.35 µM with HOP-92 NSCLC; 1.83 µM in the assay on A549 NSCLC. Further, the GI50 was 1.71 µM in the assay on CAKI-1 renal, 1.04 µM in the assay with CCRF-CEM leukemia, 1.45 µM in the assay with SW-620 colon and 2.14 µM in the assay with SF-295 CNS. The TGI with UACC-62 melanoma was determined as 2.94 µM; in the assay on SF-268 CNS it was 4.81 µM; in the assay on ACHN renal it was 3.04 µM; in the assay with NCI-H226 lung, 2.71 µM; with HOP-92 NSCLC, 6.85 µM; in the assay on A549 NSCLC, 4.29 µM. The TGI with CAKI-1 renal was found to be 3.58 µM; in the assay with CCRF-CEM leukemia it was 3.5 µM; in the assay on SW-620 colon, 3.73 µM; in the assay on SF-295 CNS it was 6.16 µM.

As to `O=C(Nc1ccc(Cl)c(Cl)c1)NS(=O)(=O)c1cnccc1Oc1ccc(F)cc1`, the GI50 is 4.16 µM in the assay with UACC-62 melanoma; 4.48 µM in the assay with SF-268 CNS; 3.22 µM with ACHN renal; 9.77 µM in the assay on NCI-H226 lung; 2.77 µM in the assay on HOP-92 NSCLC; 9.92 µM with A549 NSCLC. The GI50 with CAKI-1 renal was 2.5 µM; in the assay with CCRF-CEM leukemia, 2.47 µM; in the assay with SW-620 colon it was 3.01 µM; in the assay on SF-295 CNS, 1.65 µM. For the same compound, the TGI with UACC-62 melanoma was > 100 µM; with SF-268 CNS, > 100 µM; in the assay on ACHN renal, > 100 µM; with NCI-H226 lung, > 100 µM; in the assay with HOP-92 NSCLC it was 8.47 µM; in the assay with A549 NSCLC, 52 µM. In addition, the TGI in the assay with CAKI-1 renal was 8.23 µM; with CCRF-CEM leukemia, 7.55 µM; with SW-620 colon, > 100 µM; in the assay on SF-295 CNS, 4.8 µM.

On to `Cc1cc(N(CCC#N)CCC#N)ccc1/C=C(\NC(=O)/C=C/c1ccccc1)C(=O)NN`, for which the TGI was > 100 µM in the assay with UACC-62 melanoma; > 100 µM with SF-268 CNS; > 100 µM in the assay on ACHN renal; > 90.2 µM with NCI-H226 lung; 63.7 µM in the assay on HOP-92 NSCLC; > 100 µM in the assay with A549 NSCLC. Further, the TGI is > 100 µM with CAKI-1 renal, > 100 µM in the assay on CCRF-CEM leukemia, > 100 µM in the assay on SW-620 colon and > 95.6 µM with SF-295 CNS.

With `CC(=O)OCC1OC(N2C(=O)C(=O)c3ccccc32)C(OC(C)=O)C(OC(C)=O)C1OC(C)=O` (stereo not given), the TGI in the assay with UACC-62 melanoma, in the assay with SF-268 CNS, with ACHN renal, with NCI-H226 lung, in the assay with HOP-92 NSCLC and in the assay with A549 NSCLC was > 100 µM each time. The TGI with CAKI-1 renal, in the assay on CCRF-CEM leukemia, in the assay on SW-620 colon and with SF-295 CNS was > 100 µM each time.

As for `CC(=O)O[C@H]1CCc2c(cc(N)c3c2C(=O)C[C@]2(C)C([C@H](C)CCCC(C)C)CCC32C)C1(C)C` (stereo not given in full), the TGI in the assay on UACC-62 melanoma, with SF-268 CNS, with ACHN renal, in the assay on NCI-H226 lung, in the assay with HOP-92 NSCLC and with A549 NSCLC was > 100 µM in each case. Also, the TGI in the assay with CAKI-1 renal, with CCRF-CEM leukemia, with SW-620 colon and in the assay with SF-295 CNS was > 100 µM in each case.

For the compound `C=C1C(=O)O[C@H]2[C@H]1CC/C(COC(=O)NCC(C)c1ccc(CC(C)C)cc1)=C\CC[C@@]1(C)O[C@@H]21` (stereo not given in full), the GI50 in the assay on UACC-62 melanoma is 0.751 µM; with SF-268 CNS, 1.82 µM; with ACHN renal it was 0.623 µM; with NCI-H226 lung, 1.05 µM; in the assay with HOP-92 NSCLC, 0.545 µM; with A549 NSCLC it was 6.46 µM. Further, the GI50 is 2.32 µM in the assay with CAKI-1 renal, 0.644 µM with CCRF-CEM leukemia, 0.751 µM in the assay with SW-620 colon and 4.44 µM with SF-295 CNS. The TGI with UACC-62 melanoma turned out to be 2.35 µM; with SF-268 CNS, 6.59 µM; in the assay on ACHN renal, 1.32 µM; in the assay with NCI-H226 lung it was 4.59 µM; in the assay with HOP-92 NSCLC, 1.5 µM; with A549 NSCLC, 11.8 µM. Besides, the TGI came out at 6.68 µM with CAKI-1 renal, 3.61 µM in the assay on CCRF-CEM leukemia, 1.79 µM in the assay with SW-620 colon and 8.69 µM in the assay on SF-295 CNS.
